Read-outs that look alike come from different tables or passages of the source.
What was measured:
[1] = pKa determination by automatic spectrophotometric titration; type: physicochemical; settings: DMSO/0.1 M KCl 2:3 (V/V) solution, DMSO:KCl (0.1 M) = 2:3 (V/V), 25 °C
Protocol: (§1) The automatic titration system used in the test consisted of an automatic titrator, a luminescence 759 s UV-Vis spectrophotometer, and a pH Meter (Mettler Toledo InLab Expert PRO/Mettler Toledo InLab Science). All instruments are controlled by a computer program.
(§2) The testing solution (2:3 DMSO/KCl (0.1 M), V/V) was maintained at 25 °C using a TP-3A temperature controller. The cuvette is mounted on a spectrophotometer. The E0 and s of the pH Meter were calibrated by three standard solutions (pH = 6.86, 9.18, 4.00). KCl solution (0.1 M) was used to maintain the ionic strength. For the Fe(III) affinity evaluation, the ratio of compounds to iron ion was kept at 1.1:1 (n/n) when Logβ1 was measured; the ratio of compounds to iron ion was kept at 5:1 (n/n) when Logβ2 and Logβ3 were tested.
The titration was performed in a 50 mm path length cuvette. 45 ml KCl (0.1 M) solution, 40 μL of saturated EDTA solution were added to the cuvette. The pH value of the solution was acidified to 2.0 with hydrochloric acid (1.5 M). Then 20 μL of test compound DMSO solution (30 μM/L) was added and stirred vigorously. By adding KOH solution (0.1 M) from the automatic buret, the pH value of the solution was increased by 0.1. […] Adding KOH solution (0.1 M) and repeated the automatic process until the specified endpoint of pH value was reached. All data were recorded internally by the Visual Basic program, and the test results are analysed by the HypSpec2014 program.

[2] = Determination of iron(III) affinity (Logβ1, Logβ2, Logβ3) by spectrophotometric titration; type: physicochemical; settings: DMSO:KCl (0.1 M) = 2:3 (V/V), 25 °C; for Logβ1: compound:iron 1.1:1; for Logβ2 / Logβ3: compound:iron 5:1
Protocol: as §1, §2
A 45 ml KCl (0.1 M) solution was added to the cuvette (50 mm) and the pH value was acidified to 2.1. Then 30 μM DMSO solution of the testing compound and 60 μL acidic solution of FeCl3 (15 mM) were added separately, and the mixture was vigorously stirred. After the absorbance value is stabilised, a certain amount of HCl solution (4 M) was added by the automatic buret to reduce the pH of the solution by 0.1. After the system was equilibrated, the spectral scan was performed once after 20 min. This protocol was repeated until the specified endpoint of the pH value was reached. All data was recorded with the internal Visual Basic program, HypSpec2014 program was utilised for the data analysis.
Similarly, 45 ml KCl (0.1 M) solution was added to the cuvette (50 mm) and the pH value was acidified to 2.1. Then 30 μM DMSO solution of the testing compound and 60 μL acidic solution of FeCl3 (15 mM) were added separately, and the mixture was vigorously stirred. After the absorbance value is stabilised, a certain amount of KOH solution (0.1 M) was added by the automatic buret to increase the pH of the solution by 0.1. After the system was equilibrated, the spectral scan was performed once after 5 min. This protocol was repeated until the specified endpoint of the pH value was reached. All data were recorded with the internal Visual Basic program, HypSpec2014 program was utilised for the data analysis[5]^,[21]^,[22].

[3] = Calculation of pFe3+ by HySS software from pKa and logβ values; type: physicochemical; settings: DMSO:KCl (0.1 M) = 2:3 (V/V); calculated by HySS from pKa1, pKa2, logβ1-3
Protocol: The values of pFe^3+ were calculated by HySS software according to the results of pKa1, pKa2, logβ1, logβ2, and logβ3 determined by the above methods. The basic parameters were set as follows: FeOH = –2.563, Fe(OH)2 = –6.205, Fe(OH)3 = –15.1, Fe2(OH)2 = –2.843, Fe3(OH)4 = –6.059, Fe(OH)4 = –21.883[23].

Human MAO-B = molecular target: T1, Human MAO-B (Homo sapiens, UniProt P27338); experiment: Determination of human MAO-B inhibitory activity (Monoamine Oxidase Assay Kit, fluorescence); type: biochemical; settings: for inhibition at 1 µM: read-out: Inhibitory rate (%) 1 μM; for inhibition at 10 µM: compound at 10 μM, read-out: Inhibitory rate (%) 10 μM
T1 construct: purchased Sigma-Aldrich
T1 sequence (P27338 1-520): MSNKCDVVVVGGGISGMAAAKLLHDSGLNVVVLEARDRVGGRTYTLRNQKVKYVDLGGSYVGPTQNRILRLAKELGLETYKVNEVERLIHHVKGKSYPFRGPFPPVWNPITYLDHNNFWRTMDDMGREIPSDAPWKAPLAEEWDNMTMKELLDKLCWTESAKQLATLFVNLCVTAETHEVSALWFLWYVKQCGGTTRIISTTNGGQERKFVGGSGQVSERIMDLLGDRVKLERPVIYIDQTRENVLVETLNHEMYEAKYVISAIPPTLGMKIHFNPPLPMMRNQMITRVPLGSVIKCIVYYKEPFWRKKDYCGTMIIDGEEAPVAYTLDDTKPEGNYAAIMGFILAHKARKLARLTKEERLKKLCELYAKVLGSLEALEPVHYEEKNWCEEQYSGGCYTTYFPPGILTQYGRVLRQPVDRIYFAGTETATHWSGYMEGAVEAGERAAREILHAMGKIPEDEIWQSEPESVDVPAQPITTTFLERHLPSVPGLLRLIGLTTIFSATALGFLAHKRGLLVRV
Protocol: Human MAO-B (5 mg/mL) was purchased from Sigma-Aldrich and was pre-aliquoted and stored at -70 °C. 200 μL enzymatic reactions were diluted in 2 ml microcentrifuge tubes by potassium phosphate buffer (Assay Buffer, pH 7.4) which have been provided by Sigma-Aldrich Monoamine Oxidase Assay Kit. The final volumes of the reactions were 100 μL and contained 45 μL MAO-B (0.0075 mg/mL), included 5 μL different concentrations of the testing inhibitors (10 μM, 1 μM), and 50 μL Master Reaction, p-Tyramine, HRP Enzyme and Dye Reagent. Stock solutions of the compounds were prepared in DMSO.

[4] = pKa determination by automatic spectrophotometric titration; type: physicochemical; settings: 0.1 M KCl solution, Figure 2; 0.1 M KCl at 25 °C; read-out: pKa1 (Figure 2, printed as pH at curve crossing)

Molecule `CCc1c(O)c(=O)ccn1CCCn1cc(COc2ccc3ccc(=O)oc3c2)nn1` [Compound 27e, 2-ethyl-3-hydroxy-1–(3-(4-(((2-oxo-2H-chromen-7-yl)oxy)methyl)-1H-1,2,3-triazol-1-yl)propyl)pyridin-4(1H)-one] has a pKa ([1]; read-out: pKa1) of 3.2, a pKa ([1]; read-out: pKa2) of 9.8 and a Logβ1 [2] of 14.7. For the same molecule, the Logβ2 [2] was 26.0, the Logβ3 [2] was 33.2 and the “pFe3+” value [3] was 17.1. For the same molecule, the inhibition at 1 µM (Human MAO-B; compound at 1 μM) was 1.23% and the inhibition at 10 µM (Human MAO-B) was 95.7%.

Molecule `CCc1c(O)c(=O)ccn1CCCn1cc(COc2cc3ccccc3oc2=O)nn1` [Compound 27j, 2-ethyl-3-hydroxy-1–(3-(4-(((2-oxo-2H-chromen-3-yl)oxy)methyl)-1H-1,2,3-triazol-1-yl)propyl)pyridin-4(1H)-one] has a pKa ([1]; read-out: pKa1) of 3.3, a pKa ([1]; read-out: pKa2) of 9.8 and a Logβ1 [2] of 14.6. For the same molecule, the Logβ2 [2] was 25.7, the Logβ3 [2] was 33.5 and the “pFe3+” value [3] was 17.1. For the same molecule, the IC50 (Human MAO-B) was 860 nM, the “Inhibitory rate (%) 1 μM” value (Human MAO-B; compound at 1 μM, 1 µM) was 62.43% and the inhibition at 1 µM (Human MAO-B; compound at 1 μM) was 62%. It also gave an inhibition at 10 µM (Human MAO-B) of 88.8%, a melting point of 192 to 195 °C and a pKa [4] of 3.4.

Work on `Cc1cc(=O)c(O)c(CO)n1CCn1cc(COc2ccc3ccc(=O)oc3c2)nn1` [Compound 27a, 3-hydroxy-2-(hydroxymethyl)-6-methyl-1–(2-(4-(((2-oxo-2H-chromen-7-yl)oxy)methyl)-1H-1,2,3-triazol-1-yl)ethyl)pyridin-4(1H)-one] yielded a pKa ([1]; read-out: pKa1) of 2.7, a pKa ([1]; read-out: pKa2) of 9.2 and a Logβ1 [2] of 13.8. The Logβ2 [2] was 24.0, the Logβ3 [2] was 33.7 and the “pFe3+” value [3] was 18.9. For the same molecule, the inhibition at 1 µM (Human MAO-B; compound at 1 μM) was greater than 20%, the inhibition at 10 µM (Human MAO-B) was 96.2% and the melting point was 212 to 215 °C.

In the case of `Cc1cc(=O)c(O)c(C)n1CCCn1cc(COc2ccc3ccc(=O)oc3c2)nn1` [Compound 27d, 3-hydroxy-2,6-dimethyl-1–(3-(4-(((2-oxo-2H-chromen-7-yl)oxy)methyl)-1H-1,2,3-triazol-1-yl)propyl)pyridin-4(1H)-one], the pKa ([1]; read-out: pKa1) is reported as 3.4, the pKa ([1]; read-out: pKa2) is reported as 10 and the Logβ1 [2] is reported as 14.9. The Logβ2 [2] was 26.3, the Logβ3 [2] was 34.8 and the “pFe3+” value [3] was 17.6. For the same molecule, the inhibition at 1 µM (Human MAO-B; compound at 1 μM) was 9.67%, the inhibition at 10 µM (Human MAO-B) was 98.3% and the melting point was 263 to 265 °C.

With `Cc1cc(=O)c(O)c(C)n1CCn1cc(COc2ccc3ccc(=O)oc3c2)nn1` [Compound 27c, 3-hydroxy-2,6-dimethyl-1–(2-(4-(((2-oxo-2H-chromen-7-yl)oxy)methyl)-1H-1,2,3-triazol-1-yl)ethyl)pyridin-4(1H)-one] the pKa ([1]; read-out: pKa1) was 3.3, the pKa ([1]; read-out: pKa2) was 9.7 and the Logβ1 [2] was 14.9. For the same molecule, the Logβ2 [2] was 26.0, the Logβ3 [2] was 34.1 and the “pFe3+” value [3] was 18.0. For the same molecule, the inhibition at 1 µM (Human MAO-B; compound at 1 μM) was 1.84% and the inhibition at 10 µM (Human MAO-B) was 91%.

In the case of `CCc1c(O)c(=O)ccn1CCCn1cc(COc2cc(=O)oc3ccccc23)nn1` [Compound 27g, 2-ethyl-3-hydroxy-1–(3-(4-(((2-oxo-2H-chromen-4-yl)oxy)methyl)-1H-1,2,3-triazol-1-yl)propyl)pyridin-4(1H)-one], the pKa ([1]; read-out: pKa1) is reported as 3.2, the pKa ([1]; read-out: pKa2) is reported as 9.7 and the Logβ1 [2] is reported as 14.6. For the same molecule, the Logβ2 [2] was 25.6, the Logβ3 [2] was 33.1 and the “pFe3+” value [3] was 17.1. For the same molecule, the inhibition at 1 µM (Human MAO-B; compound at 1 μM) was greater than 20%, the inhibition at 10 µM (Human MAO-B) was 89.5% and the melting point was 195 to 198 °C.

`Cc1cc(=O)c(O)c(CO)n1CCn1cc(COc2cc(=O)oc3ccccc23)nn1` [Compound 27h, 3-hydroxy-2-(hydroxymethyl)-6-methyl-1–(2-(4-(((2-oxo-2H-chromen-4-yl)oxy)methyl)-1H-1,2,3-triazol-1-yl)ethyl)pyridin-4(1H)-one] showed a pKa ([1]; read-out: pKa1) of 3, a pKa ([1]; read-out: pKa2) of 9.1 and a Logβ1 [2] of 13.3. For the same molecule, the Logβ2 [2] was 24.8, the Logβ3 [2] was 33.2 and the “pFe3+” value [3] was 18.7. The inhibition at 1 µM (Human MAO-B; compound at 1 μM) was 13.2%, the inhibition at 10 µM (Human MAO-B) was 85.7% and the melting point was 142 to 148 °C.

In the case of `Cc1cc(=O)c(O)c(CO)n1CCCn1cc(COc2cc3ccccc3oc2=O)nn1` [Compound 27k, 3-hydroxy-2-(hydroxymethyl)-6-methyl-1–(3-(4-(((2-oxo-2H-chromen-3-yl)oxy)methyl)-1H-1,2,3-triazol-1-yl)propyl)pyridin-4(1H)-one], the pKa ([1]; read-out: pKa1) is reported as 3.3, the pKa ([1]; read-out: pKa2) is reported as 9.1 and the Logβ1 [2] is reported as 13.6. The Logβ2 [2] was 24.5, the Logβ3 [2] was 33.0 and the “pFe3+” value [3] was 18.4. It also gave an inhibition at 1 µM (Human MAO-B; compound at 1 μM) greater than 30% and an inhibition at 10 µM (Human MAO-B) of 90.5%.

For `CCc1c(O)c(=O)ccn1CCn1cc(COc2cc(=O)oc3ccccc23)nn1` [Compound 27f, 2-ethyl-3-hydroxy-1–(2-(4-(((2-oxo-2H-chromen-4-yl)oxy)methyl)-1H-1,2,3-triazol-1-yl)ethyl)pyridin-4(1H)-one], the pKa ([1]; read-out: pKa1) was 3.4, the pKa ([1]; read-out: pKa2) was 9.8 and the Logβ1 [2] was 14.9. The Logβ2 [2] was 25.7, the Logβ3 [2] was 32.8 and the “pFe3+” value [3] was 16.7. It also gave an inhibition at 1 µM (Human MAO-B; compound at 1 μM) greater than 30%, an inhibition at 10 µM (Human MAO-B) of 93.3% and a melting point of 253 to 256 °C.

For `Cc1cc(=O)c(O)c(CO)n1CCCn1cc(COc2ccc3ccc(=O)oc3c2)nn1` [Compound 27b, 3-hydroxy-2-(hydroxymethyl)-6-methyl-1–(3-(4-(((2-oxo-2H-chromen-7-yl)oxy)methyl)-1H-1,2,3-triazol-1-yl)propyl)pyridin-4(1H)-one], the pKa ([1]; read-out: pKa1) was 2.8, the pKa ([1]; read-out: pKa2) was 8.8 and the Logβ1 [2] was 12.9. The Logβ2 [2] was 25.5, the Logβ3 [2] was 33.5 and the “pFe3+” value [3] was 19.8. It also gave an IC50 (Human MAO-B) of 680 nM.

`CCc1c(O)c(=O)ccn1CCn1cc(COc2cc3ccccc3oc2=O)nn1` [Compound 27i, 2-ethyl-3-hydroxy-1–(2-(4-(((2-oxo-2H-chromen-3-yl)oxy)methyl)-1H-1,2,3-triazol-1-yl)ethyl)pyridin-4(1H)-one] gave a pKa ([1]; read-out: pKa1) of 2.9, a pKa ([1]; read-out: pKa2) of 9.6 and a Logβ1 [2] of 14.2. For the same molecule, the Logβ2 [2] was 25.4, the Logβ3 [2] was 32.8 and the “pFe3+” value [3] was 17.0. The inhibition at 1 µM (Human MAO-B; compound at 1 μM) was greater than 30%, the inhibition at 10 µM (Human MAO-B) was 94% and the melting point was 258 to 261 °C.

— article PMC6713216, “Dual-target anti-Alzheimer’s disease agents with both iron ion chelating and monoamine oxidase-B inhibitory activity” (Journal of Enzyme Inhibition and Medicinal Chemistry, 2019)
